Laboratory results reported in ChEMBL document CHEMBL1134349, “AMP deaminase inhibitors. 5. Design, synthesis, and SAR of a highly potent inhibitor series” (J Med Chem, 2001).

Legend:
Adenosine deaminase = target: T1, Adenosine deaminase (Bos taurus, UniProt P56658); experiment: Inhibition of Calf intestinal adenosine deaminase (ADA).
T1 sequence (P56658 whole entry): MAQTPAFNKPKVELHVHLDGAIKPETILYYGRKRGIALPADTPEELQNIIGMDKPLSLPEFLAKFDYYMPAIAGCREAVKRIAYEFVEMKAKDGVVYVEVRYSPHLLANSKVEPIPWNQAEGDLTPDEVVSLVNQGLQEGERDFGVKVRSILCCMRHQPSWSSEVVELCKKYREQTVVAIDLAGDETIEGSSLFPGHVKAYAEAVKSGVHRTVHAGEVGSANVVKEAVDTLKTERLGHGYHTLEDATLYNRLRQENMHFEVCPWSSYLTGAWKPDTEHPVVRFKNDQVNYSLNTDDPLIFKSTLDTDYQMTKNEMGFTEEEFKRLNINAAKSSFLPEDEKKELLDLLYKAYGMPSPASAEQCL

AMP deaminase 3 = target: T2, AMP deaminase 3 (Homo sapiens, UniProt Q01432); experiment: Inhibition of recombinant human E-type adenylate deaminase
T2 sequence (Q01432 whole entry): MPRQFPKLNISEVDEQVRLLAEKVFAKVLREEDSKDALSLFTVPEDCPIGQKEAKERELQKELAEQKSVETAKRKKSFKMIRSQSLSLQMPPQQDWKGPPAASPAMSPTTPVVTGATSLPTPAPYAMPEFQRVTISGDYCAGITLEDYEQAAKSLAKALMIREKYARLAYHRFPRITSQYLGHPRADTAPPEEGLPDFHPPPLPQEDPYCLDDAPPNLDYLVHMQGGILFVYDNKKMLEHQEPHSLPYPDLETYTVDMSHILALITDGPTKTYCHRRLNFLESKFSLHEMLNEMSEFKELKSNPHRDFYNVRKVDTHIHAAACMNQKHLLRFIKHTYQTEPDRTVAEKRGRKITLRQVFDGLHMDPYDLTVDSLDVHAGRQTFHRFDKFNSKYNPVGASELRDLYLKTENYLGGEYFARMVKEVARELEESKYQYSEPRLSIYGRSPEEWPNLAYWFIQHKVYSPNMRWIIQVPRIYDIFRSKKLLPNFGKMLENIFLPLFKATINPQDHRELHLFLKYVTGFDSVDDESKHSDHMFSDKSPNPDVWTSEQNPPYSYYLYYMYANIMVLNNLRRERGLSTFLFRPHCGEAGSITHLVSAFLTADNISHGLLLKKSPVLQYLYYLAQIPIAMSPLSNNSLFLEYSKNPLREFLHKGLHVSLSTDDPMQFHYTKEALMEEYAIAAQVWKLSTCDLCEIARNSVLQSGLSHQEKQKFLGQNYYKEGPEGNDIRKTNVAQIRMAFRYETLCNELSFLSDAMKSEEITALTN

SMILES	Ki (Adenosine deaminase) [µM]	Ki (AMP deaminase 3) [µM]
O=C(O)c1c(Cl)c2c(c(CCn3cnc4c3N=CNCC4O)c1Cl)CCCC2 (configuration not stated)	> 7.5	0.05
CC(C)Oc1c(C(=O)O)cc(CCn2cnc3c2N=CNCC3O)c2c1CCCC2 (configuration not stated)	> 7.5	0.09
COC(=O)c1cc(CCn2cnc3c2NC=NCC3O)c2ccccc2c1 (configuration not stated)	> 7.5	1.8
COc1c(C(=O)O)cc2c(c1CCn1cnc3c1NC=NCC3O)CCCC2 (configuration not stated)	> 7.5	0.04
O=C(O)c1cc(CCn2cnc3c2NC=NCC3O)c2ccccc2c1 (configuration not stated)	> 1000	0.02
OC[C@H]1O[C@@H](n2cnc3c2N=CNC[C@H]3O)[C@H](O)[C@@H]1O [COFORMYCIN]	–	3
CCOC(=O)c1cc2c(c(CCn3cnc4c3N=CNCC4O)c1OC)CCCC2 (configuration not stated)	> 7.5	2.4
O=C(O)c1cc(CCn2cnc3c2N=CNCC3O)c2c(c1OCc1ccccc1)CCCC2 (configuration not stated)	> 7.5	0.009
CCOC(=O)c1cc(CCn2cnc3c2N=CNCC3O)c2cc(Br)ccc2c1 (configuration not stated)	4.4	14
O=C(O)C(CCCCn1cnc2c1NC=NCC2O)Cc1ccccc1 (configuration not stated)	–	0.41
O=C(O)c1cccc(CCn2cnc3c2N=CNCC3O)c1 (configuration not stated)	–	0.5
O=C(O)c1cc(CCn2cnc3c2N=CNCC3O)c2c(c1Br)CCCC2 (configuration not stated)	> 7.5	0.002
CCOC(=O)c1cc(CCn2cnc3c2NC=NCC3O)c2c(c1Br)CCCC2 (configuration not stated)	0.53	1
O=C(O)c1cc(CCn2cnc3c2N=CNCC3O)c2cc(Br)ccc2c1 (configuration not stated)	> 7.5	0.96
O=C(OCc1ccccc1)c1cc2c(c(CCn3cnc4c3N=CNCC4O)c1)CCCC2 (configuration not stated)	0.72	5
O=C(O)c1cc2c(c(CCn3cnc4c3NC=NCC4O)c1)CCCC2 (configuration not stated)	> 7.5	0.015
O=C(OCc1ccccc1)c1c(Cl)c2c(c(CCn3cnc4c3NC=NCC4O)c1Cl)CCCC2 (configuration not stated)	> 7.5	0.3
CCOC(=O)c1cc(CCn2cnc3c2N=CNCC3O)c2cccc(C(F)(F)F)c2c1 (configuration not stated)	2.7	35
CCOC(=O)c1cc(CCn2cnc3c2NC=NCC3O)c2c(c1OCc1ccccc1)CCCC2 (configuration not stated)	> 7.5	0.3
CCOC(=O)c1cc(CCn2cnc3c2NC=NCC3O)c2c(c1OC)CCCC2 (configuration not stated)	3.7	2.3
CCOC(=O)c1cc(CCn2cnc3c2NC=NCC3O)c2c(c1OC(C)C)CCCC2 (configuration not stated)	> 7.5	3.8
CCOC(=O)c1cc2c(c(CCn3cnc4c3N=CNCC4O)c1)CCCC2 (configuration not stated)	3.4	1.3
COc1c(C(=O)O)cc(CCn2cnc3c2NC=NCC3O)c2c1CCCC2 (configuration not stated)	> 7.5	0.03
O=C(O)c1cc(CCn2cnc3c2N=CNCC3O)c2cccc(C(F)(F)F)c2c1 (configuration not stated)	> 7.5	0.22
CCOC(=O)c1c(Cl)c2c(c(CCn3cnc4c3NC=NCC4O)c1Cl)CCCC2 (configuration not stated)	> 7.5	0.5
